Values quoted from earlier work, collected in US20030036641A1, “Methods for homology-driven reassembly of nucleic acid sequences” (priority 2001, published 2003).

Test system: E. coli TG1
Details: E. coli TG1 containing pGJ103 (pI258 ars operon in pUC19), LB ampicillin agar plates

For sodium arsenate, the “MIC (minimum inhibitory concentration)” value is given as 4 µg/mL.
